Measured values published in ChEMBL document CHEMBL1201862, “PubChem BioAssay data set” (2004).
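Exposure lasted 48 hours, with cells grown in 96-well plates and compounds tested at five concentrations. GI50 = concentration required for 50% inhibition of growth.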 Active and inactive are the calls of the source. Rule as the data show it: active = GI50 up to about 1.1 µM and inactive = higher.

Legend:
Assay in all cases: growth of human tumour cells (NCI), 48 h
786-0 = test system: 786-0
A498 = test system: A498
A549 = test system: A549
ACHN = test system: ACHN
BT-549 = test system: BT-549
CAKI-1 = test system: CAKI-1
CCRF-CEM = test system: CCRF-CEM
COLO 205 = test system: COLO 205
DLD-1 = test system: DLD-1
DMS-273 = test system: DMS-273
DU-145 = test system: DU-145
EKVX = test system: EKVX
HCC 2998 = test system: HCC 2998
HCT-116 = test system: HCT-116
HCT-15 = test system: HCT-15
HL-60 = test system: HL-60
HOP-18 = test system: HOP-18
HOP-62 = test system: HOP-62
HOP-92 = test system: HOP-92
HT-29 = test system: HT-29
Hs-578T = test system: Hs-578T
IGROV-1 = test system: IGROV-1
K562 = test system: K562
KM-20L2 = test system: KM-20L2
KM12 = test system: KM12
LOX IMVI = test system: LOX IMVI
M14 = test system: M14
M19-MEL = test system: M19-MEL
MCF7 = test system: MCF7
MDA-MB-231 = test system: MDA-MB-231
MDA-MB-435 = test system: MDA-MB-435
MDA-N = test system: MDA-N
MOLT-4 = test system: MOLT-4
Malme-3M = test system: Malme-3M
NCI-H226 = test system: NCI-H226
NCI-H23 = test system: NCI-H23
NCI-H460 = test system: NCI-H460
NCI-H522 = test system: NCI-H522
NCI/ADR-RES = test system: NCI/ADR-RES
OVCAR-3 = test system: OVCAR-3
OVCAR-4 = test system: OVCAR-4
OVCAR-5 = test system: OVCAR-5
OVCAR-8 = test system: OVCAR-8
PC-3 = test system: PC-3
RPMI-8226 = test system: RPMI-8226
RXF 393 = test system: RXF 393
SF-268 = test system: SF-268
SF-295 = test system: SF-295
SF-539 = test system: SF-539
SK-MEL-28 = test system: SK-MEL-28
SK-MEL-2 = test system: SK-MEL-2
SK-MEL-5 = test system: SK-MEL-5
SK-OV-3 = test system: SK-OV-3
SN12C = test system: SN12C
SNB-19 = test system: SNB-19
SNB-75 = test system: SNB-75
SNB-78 = test system: SNB-78
SR = test system: SR
SW-620 = test system: SW-620
T47D = test system: T47D
TK-10 = test system: TK-10
U-251 = test system: U-251
UACC-257 = test system: UACC-257
UACC-62 = test system: UACC-62
UO-31 = test system: UO-31
DMS-114 = test system: DMS-114
XF498 = test system: XF498

CN(C)CC1CCCC(CN2CCCCC2)C1=O (configuration not stated)
GI50 (786-0): 2.74 µM (inactive) | GI50 (A498): 38.5 µM (inactive) | GI50 (A549): > 62.1 µM (inactive) | GI50 (ACHN): 6.58 µM (inactive) | GI50 (BT-549): 15.2 µM (inactive) | GI50 (CAKI-1): 1.53 µM (inactive) | GI50 (CCRF-CEM): 0.762 µM (active) | GI50 (COLO 205): 3.08 µM (inactive) | GI50 (DLD-1): 2.98 µM (inactive) | GI50 (DMS-273): 22.1 µM (inactive) | GI50 (DU-145): 18.2 µM (inactive) | GI50 (EKVX): 12.5 µM (inactive) | GI50 (HCC 2998): 18.5 µM (inactive) | GI50 (HCT-116): 3.01 µM (inactive) | GI50 (HCT-15): 8.83 µM | GI50 (HL-60): 2.18 µM (inactive) | GI50 (HOP-18): 2.02 µM (inactive) | GI50 (HOP-62): > 100 µM (inactive) | GI50 (HOP-92): 1.96 µM (inactive) | GI50 (HT-29): 5.4 µM (inactive) | GI50 (Hs-578T): 19.7 µM (inactive) | GI50 (IGROV-1): 17 µM (inactive) | GI50 (K562): 0.172 µM (active) | GI50 (KM-20L2): 19.6 µM (inactive) | GI50 (KM12): 19.4 µM (inactive) | GI50 (LOX IMVI): 8.26 µM (inactive) | GI50 (M14): 7.73 µM (inactive) | GI50 (M19-MEL): 18.8 µM (inactive) | GI50 (MCF7): 1.07 µM (active) | GI50 (MDA-MB-231): 15.1 µM (inactive) | GI50 (MDA-MB-435): 17.1 µM (inactive) | GI50 (MDA-N): 14.4 µM (inactive) | GI50 (MOLT-4): 0.604 µM (active) | GI50 (Malme-3M): 3.33 µM (inactive) | GI50 (NCI-H226): 20.6 µM (inactive) | GI50 (NCI-H23): 17.9 µM (inactive) | GI50 (NCI-H460): > 55.8 µM (inactive) | GI50 (NCI-H522): 0.0764 µM (active) | GI50 (NCI/ADR-RES): 3.89 µM (inactive) | GI50 (OVCAR-3): 8.63 µM (inactive) | GI50 (OVCAR-4): 4.25 µM (inactive) | GI50 (OVCAR-5): 31.4 µM (inactive) | GI50 (OVCAR-8): 14.2 µM (inactive) | GI50 (PC-3): 15.6 µM (inactive) | GI50 (RPMI-8226): 0.158 µM (active) | GI50 (RXF 393): 12.8 µM (inactive) | GI50 (SF-268): 19.5 µM (inactive) | GI50 (SF-295): > 93.5 µM (inactive) | GI50 (SF-539): 17.5 µM (inactive) | GI50 (SK-MEL-28): 13.9 µM (inactive) | GI50 (SK-MEL-2): 15.7 µM (inactive) | GI50 (SK-MEL-5): 18.7 µM (inactive) | GI50 (SK-OV-3): > 62.7 µM (inactive) | GI50 (SN12C): 8.32 µM (inactive) | GI50 (SNB-19): > 88.3 µM (inactive) | GI50 (SNB-75): 19.4 µM (inactive) | GI50 (SNB-78): 7.71 µM (inactive) | GI50 (SR): 10.8 µM (inactive) | GI50 (SW-620): 1.87 µM (inactive) | GI50 (T47D): 2.19 µM (inactive) | GI50 (TK-10): 8.73 µM (inactive) | GI50 (U-251): > 54.6 µM (inactive) | GI50 (UACC-257): 14.6 µM (inactive) | GI50 (UACC-62): 18.3 µM (inactive) | GI50 (UO-31): 17.2 µM (inactive)

CC1C(=O)C(C)C(c2cccs2)N(N=O)C1c1cccs1 (configuration not stated)
GI50 (A549): > 100 µM (inactive) | GI50 (CAKI-1): > 100 µM (inactive) | GI50 (CCRF-CEM): > 100 µM (inactive) | GI50 (COLO 205): > 100 µM (inactive) | GI50 (DLD-1): > 100 µM (inactive) | GI50 (DMS-114): 95.1 µM (inactive) | GI50 (DMS-273): > 100 µM (inactive) | GI50 (EKVX): > 100 µM (inactive) | GI50 (HCC 2998): > 100 µM (inactive) | GI50 (HCT-116): > 100 µM (inactive) | GI50 (HCT-15): > 100 µM | GI50 (HL-60): > 100 µM (inactive) | GI50 (HOP-18): 11.4 µM (inactive) | GI50 (HOP-62): > 100 µM (inactive) | GI50 (HOP-92): 68.5 µM (inactive) | GI50 (HT-29): > 35 µM (inactive) | GI50 (IGROV-1): > 100 µM (inactive) | GI50 (K562): > 80.5 µM (inactive) | GI50 (KM-20L2): > 100 µM (inactive) | GI50 (KM12): > 100 µM (inactive) | GI50 (LOX IMVI): > 100 µM (inactive) | GI50 (M19-MEL): > 100 µM (inactive) | GI50 (MCF7): > 100 µM (inactive) | GI50 (MOLT-4): > 100 µM (inactive) | GI50 (NCI-H226): > 100 µM (inactive) | GI50 (NCI-H23): > 100 µM (inactive) | GI50 (NCI-H460): > 100 µM (inactive) | GI50 (NCI-H522): 37.7 µM (inactive) | GI50 (NCI/ADR-RES): > 100 µM (inactive) | GI50 (OVCAR-3): 9.27 µM (inactive) | GI50 (OVCAR-4): > 100 µM (inactive) | GI50 (OVCAR-5): > 100 µM (inactive) | GI50 (OVCAR-8): > 100 µM (inactive) | GI50 (RPMI-8226): > 100 µM (inactive) | GI50 (RXF 393): > 100 µM (inactive) | GI50 (SF-268): > 100 µM (inactive) | GI50 (SF-295): > 100 µM (inactive) | GI50 (SF-539): > 100 µM (inactive) | GI50 (SK-MEL-28): > 100 µM (inactive) | GI50 (SK-MEL-2): > 89.9 µM (inactive) | GI50 (SK-MEL-5): > 100 µM (inactive) | GI50 (SK-OV-3): > 56 µM (inactive) | GI50 (SN12C): > 100 µM (inactive) | GI50 (SNB-19): > 100 µM (inactive) | GI50 (SNB-75): 28.1 µM (inactive) | GI50 (SNB-78): > 68.2 µM (inactive) | GI50 (SW-620): > 100 µM (inactive) | GI50 (U-251): > 100 µM (inactive) | GI50 (UACC-257): > 100 µM (inactive) | GI50 (UACC-62): > 100 µM (inactive) | GI50 (UO-31): > 100 µM (inactive) | GI50 (XF498): 14.8 µM (inactive)
